Measurements from patent publication US11007128B2, “Composition for preventing or treating dental erosion” (MEDA OTC AB, priority 2014, dated 2021).

How the values were obtained:
[1] = 0.15% HF at pH 2.58, 5 minutes at 37° C.; then 2% citric acid 15 minutes at 37° C.
Description: A low vacuum scanning electron microscope, JEOL JSM 6610 LV, was used for studying surfaces.
SEM pictures were taken with 5000 times magnification (SEM×5000).
A human ex vivo tooth (premolar) was received from a dentist practice. The tooth was stored in Ringer solution and kept in refrigerator.
The effect of the HF treatment on HA surfaces was verified using an ex vivo human premolar tooth. The tooth had been split into two halves before the experiment (tooth 1:1 and tooth 1:2). The two tooth halves were rinsed with distilled water. One tooth half was placed in a 50 ml plastic bottle containing 2% citric acid and then allowed to incubate at 37° C. for 15 minutes under gentle agitation. The tooth was then rinsed with distilled water for a few minutes and then put on tissue paper to dry. […] The tooth half was rinsed with distilled water and then immersed in 2% citric acid and then allowed to incubate at 37° C. for 15 minutes under gentle agitation. The tooth was then rinsed with distilled water and left to dry on tissue paper for a few minutes.

[2] = 0.2% HF solution, pH 2.0, ~0.1 mol/l F; sound enamel; cited from earlier work

F [HF, hydrogen fluoride]
SEM: protection of enamel from etching [1]: clearly protected from etching | duration of protective effect against citric acid attack [2]: at least 1 week
